Experimental data: US20250109387A1, “SMOOTH MUSCLE CELLS SEEDED IN MICROCHANNELS WITHIN HYDROGELS TO FORM FUNCTIONAL MEDIAL LAYERS IN ENGINEERED MICROVASCULATURE” (VANDERBILT UNIVERSITY, priority 2023, published 2025)

System: HASMCs
Experiment: Calcium imaging of HASMCs carrying GCaMP6f after ET-1 exposure
Format: cell-based, human
Conditions: 500 nM endothelin-1; HASMCs cultured in flasks (2D) and in channels (3D); fluorescence microscopy
Procedure: Calcium imaging: HASMCs were infected with lentivirus carrying GCaMP6f and cultured in flasks (2D) and in channels (3D). Cells were then exposed to 500 nM endothelin-1 (ET-1, vasoconstrictor), and imaged via fluorescence microscopy (FIGS. 16A-16F).

## endothelin-1 [ET-1]
  intracellular Ca^2+ release (GCaMP6f fluorescence over time): substantial intracellular Ca^2+ release
